{
  "source": "patent US12391737B2",
  "about": "“Soluble NPY2 receptor agonists” (Boehringer Ingelheim International GmbH, priority 2020, dated 2025)",
  "key": {"[1]": {"experiment": "Solubility determination", "settings": "for Sol6: pH 6; for Sol7: pH 7", "method_in_brief": "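Solubility is derived from the ratio of reversed-phase peak areas, filtered sample over a control dissolved at 1 mg/ml in 50% acetonitrile. Peptides are agitated for 2 hours at room temperature in 0.1 M sodium diphosphate at pH 6.4 or 7.0, aiming at 10 mg/ml.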"}, "[2]": {"molecular_target": "T1, Human Neuropeptide Y2 Receptor (Homo sapiens, UniProt P49146)", "T1 construct": "purchased CHEMICON HTS066M", "T1 sequence (P49146 1-381)": "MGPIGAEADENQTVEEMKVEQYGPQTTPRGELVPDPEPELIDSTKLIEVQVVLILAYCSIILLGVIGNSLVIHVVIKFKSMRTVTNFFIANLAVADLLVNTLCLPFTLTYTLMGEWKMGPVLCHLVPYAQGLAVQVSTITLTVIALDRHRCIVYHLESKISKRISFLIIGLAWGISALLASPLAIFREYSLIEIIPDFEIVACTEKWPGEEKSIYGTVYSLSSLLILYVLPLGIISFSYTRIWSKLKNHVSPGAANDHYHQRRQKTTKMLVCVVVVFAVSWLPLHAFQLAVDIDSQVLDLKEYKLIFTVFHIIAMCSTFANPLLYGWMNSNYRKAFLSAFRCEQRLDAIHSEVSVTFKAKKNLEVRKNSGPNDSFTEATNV", "experiment": "Radioligand binding competition assay (RLB)", "settings": "Table 3, 125I-PYY(1-36) competition; read-out: Ki", "method_in_brief": "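Filtration competition binding on membranes from cells expressing the receptor, 0.5 μg protein/well, in 50 mM HEPES, 5 mM MgCl2, 1 mM CaCl2, pH 7.4, with 0.2% ovalbumin. Incubation ran 2 h at room temperature, followed by GF/C filtration and scintillation counting. IC50 came from nonlinear sigmoidal fits.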"}},
  "data": [
    {"compound": "CC[C@H](C)[C@H](NC(=O)[C@H](CCC(=O)O)NC(=O)[C@H](CCC(=O)O)NC(=O)[C@@H]1CCCN1C(=O)[C@@H](NC(=O)[C@H](C)NC(=O)[C@H](CC(=O)O)NC(=O)[C@H](CCC(=O)O)NC(=O)[C@H](CCC(=O)O)NC(=O)[C@@H]1CCCN1C(=O)[C@H](CCCCNC(=O)CCCCCNC(=O)CC[C@H](NC(=O)CCCCCCCCCCCCCCCCC(=O)O)C(=O)O)NC(=O)[C@H](CCC(=O)O)NC(=O)[C@@H]1CCCN1C(=O)[C@H](C)NC(=O)CC(C)C)[C@@H](C)O)C(=O)N[C@@H](CCC(N)=O)C(=O)N[C@@H](CCCNC(=N)N)C(=O)N[C@@H](Cc1ccc(O)cc1)C(=O)N[C@@H](Cc1ccc(O)cc1)C(=O)N[C@@H](C)C(=O)N[C@@H](CO)C(=O)N[C@@H](CC(C)C)C(=O)N[C@@H](CCCNC(=N)N)C(=O)N[C@@H](Cc1c[nH]cn1)C(=O)N[C@@H](Cc1ccc(O)cc1)C(=O)N[C@@H](Cc1ccc(O)cc1)C(=O)N[C@@H](CC(N)=O)C(=O)N[C@@H](Cc1c[nH]c2ccccc12)C(=O)N[C@@H](CC(C)C)C(=O)N[C@H](C(=O)N[C@@H](CCCNC(=N)N)C(=O)N[C@@H](CCC(N)=O)C(=O)N[C@@H](CCCNC(=N)N)C(=O)N[C@@H](Cc1ccc(O)cc1)C(N)=O)[C@@H](C)O", "note": "[Compound 86, N{alpha-4}-(3-methylbutanoyl)-N{epsilon-7}-(6-[(4S)-4-carboxy-4-(17-carboxyheptadecanamido)butanamido]hexanoyl)-[4A,7K,9E,13T,17I,18Q,28Y,30W,31L]-hPYY(4-36)]", "values": [
      {"measurement": "Sol6", "setting": "[1]", "value": ">10.0", "unit": "mg/mL"},
      {"measurement": "Sol7", "setting": "[1]", "value": ">10.0", "unit": "mg/mL"},
      {"measurement": "Ki", "setting": "[2]", "value": 4.33, "unit": "nM"}
    ]},
    {"compound": "CC(C)CC(=O)N[C@@H](C)C(=O)N1CCC[C@H]1C(=O)N[C@@H](CCC(=O)O)C(=O)N[C@@H](CCCCNC(=O)CCCCCNC(=O)CC[C@H](NC(=O)CCCCCCCCCCCCCCCCC(=O)O)C(=O)O)C(=O)N1CCC[C@H]1C(=O)N[C@@H](CCC(=O)O)C(=O)N[C@@H](CCC(=O)O)C(=O)N[C@@H](CC(=O)O)C(=O)N[C@@H](C)C(=O)N[C@H](C(=O)N1CCC[C@H]1C(=O)N[C@@H](CCC(=O)O)C(=O)N[C@@H](CCC(=O)O)C(=O)N[C@@H](CC(C)C)C(=O)N[C@@H](CCC(N)=O)C(=O)N[C@@H](CCCNC(=N)N)C(=O)N[C@@H](Cc1ccc(O)cc1)C(=O)N[C@@H](Cc1ccc(O)cc1)C(=O)N[C@H](C(=O)N1CCC[C@H]1C(=O)N[C@@H](CC(C)C)C(=O)N[C@@H](CCCNC(=N)N)C(=O)N[C@@H](Cc1c[nH]cn1)C(=O)N[C@@H](Cc1ccc(O)cc1)C(=O)N[C@@H](Cc1ccc(O)cc1)C(=O)N[C@@H](CC(N)=O)C(=O)N[C@@H](Cc1c[nH]c2ccccc12)C(=O)N[C@@H](CC(C)C)C(=O)N[C@H](C(=O)N[C@@H](CCCNC(=N)N)C(=O)N[C@@H](CCC(N)=O)C(=O)N[C@@H](CCCNC(=N)N)C(=O)N[C@@H](Cc1ccc(O)cc1)C(N)=O)[C@@H](C)O)C(C)C)[C@@H](C)O", "note": "[Compound 87, N{alpha-4}-(3-methylbutanoyl)-N{epsilon-7}-(6-[(4S)-4-carboxy-4-(17-carboxyheptadecanamido)butanamido]hexanoyl)-[4A,7K,9E,13T,18Q,22V,23P,28Y,30W,31L]-hPYY(4-36)]", "values": [
      {"measurement": "Sol6", "setting": "[1]", "value": 9.7, "unit": "mg/mL"},
      {"measurement": "Sol7", "setting": "[1]", "value": 9.7, "unit": "mg/mL"},
      {"measurement": "Ki", "setting": "[2]", "value": 22.4, "unit": "nM"}
    ]},
    {"compound": "CC(C)CC(=O)N[C@@H](C)C(=O)N1CCC[C@H]1C(=O)N[C@@H](CCC(=O)O)C(=O)N[C@@H](CCCCNC(=O)CCCCCNC(=O)CC[C@H](NC(=O)CCCCCCCCCCCCCCCCC(=O)O)C(=O)O)C(=O)N1CCC[C@H]1C(=O)N[C@@H](CCC(=O)O)C(=O)N[C@@H](CCC(=O)O)C(=O)N[C@@H](CC(=O)O)C(=O)N[C@@H](C)C(=O)N[C@H](C(=O)N1CCC[C@H]1C(=O)N[C@@H](CCC(=O)O)C(=O)N[C@@H](CCC(=O)O)C(=O)N[C@@H](CC(C)C)C(=O)N[C@@H](CCC(N)=O)C(=O)N[C@@H](CCCNC(=N)N)C(=O)N[C@@H](CCC(N)=O)C(=O)N[C@@H](Cc1ccc(O)cc1)C(=O)N[C@H](C(=O)N[C@@H](CO)C(=O)N[C@@H](CC(C)C)C(=O)N[C@@H](CCCNC(=N)N)C(=O)N[C@@H](Cc1c[nH]cn1)C(=O)N[C@@H](Cc1ccc(O)cc1)C(=O)N[C@@H](Cc1ccc(O)cc1)C(=O)N[C@@H](CC(N)=O)C(=O)N[C@@H](Cc1c[nH]c2ccccc12)C(=O)N[C@@H](CC(C)C)C(=O)N[C@H](C(=O)N[C@@H](CCCNC(=N)N)C(=O)N[C@@H](CCC(N)=O)C(=O)N[C@@H](CCCNC(=N)N)C(=O)N[C@@H](Cc1ccc(O)cc1)C(N)=O)[C@@H](C)O)C(C)C)[C@@H](C)O", "note": "[Compound 88, N{alpha-4}-(3-methylbutanoyl)-N{epsilon-7}-(6-[(4S)-4-carboxy-4-(17-carboxyheptadecanamido)butanamido]hexanoyl)-[4A,7K,9E,13T,18Q,20Q,22V,28Y,30W,31L]-hPYY(4-36)]", "values": [
      {"measurement": "Sol6", "setting": "[1]", "value": 8.7, "unit": "mg/mL"},
      {"measurement": "Sol7", "setting": "[1]", "value": 8.9, "unit": "mg/mL"},
      {"measurement": "Ki", "setting": "[2]", "value": 16.3, "unit": "nM"}
    ]},
    {"compound": "CC(C)CC(=O)N[C@@H](C)C(=O)N1CCC[C@H]1C(=O)N[C@@H](CCC(=O)O)C(=O)N[C@@H](CCCCNC(=O)CCCCCNC(=O)CC[C@H](NC(=O)CCCCCCCCCCCCCCCCC(=O)O)C(=O)O)C(=O)N1CCC[C@H]1C(=O)N[C@@H](CCC(=O)O)C(=O)N[C@@H](CCC(=O)O)C(=O)N[C@@H](CC(=O)O)C(=O)N[C@@H](C)C(=O)N[C@H](C(=O)N1CCC[C@H]1C(=O)N[C@@H](CCC(=O)O)C(=O)N[C@@H](CCC(=O)O)C(=O)N[C@@H](CC(C)C)C(=O)N[C@@H](CCC(N)=O)C(=O)N[C@@H](CCCNC(=N)N)C(=O)N[C@@H](Cc1ccc(O)cc1)C(=O)N[C@@H](Cc1ccc(O)cc1)C(=O)N[C@H](C(=O)N[C@H](C(=O)N[C@@H](CC(C)C)C(=O)N[C@@H](CCCNC(=N)N)C(=O)N[C@@H](Cc1c[nH]cn1)C(=O)N[C@@H](Cc1ccc(O)cc1)C(=O)N[C@@H](Cc1ccc(O)cc1)C(=O)N[C@@H](CC(N)=O)C(=O)N[C@@H](Cc1c[nH]c2ccccc12)C(=O)N[C@@H](CC(C)C)C(=O)N[C@H](C(=O)N[C@@H](CCCNC(=N)N)C(=O)N[C@@H](CCC(N)=O)C(=O)N[C@@H](CCCNC(=N)N)C(=O)N[C@@H](Cc1ccc(O)cc1)C(N)=O)[C@@H](C)O)C(C)C)C(C)C)[C@@H](C)O", "note": "[Compound 90, N{alpha-4}-(3-methylbutanoyl)-N{epsilon-7}-(6-[(4S)-4-carboxy-4-(17-carboxyheptadecanamido)butanamido]hexanoyl)-[4A,7K,9E,13T,18Q,22V,23V,28Y,30W,31L]-hPYY(4-36)]", "values": [
      {"measurement": "Sol6", "setting": "[1]", "value": 9.6, "unit": "mg/mL"},
      {"measurement": "Sol7", "setting": "[1]", "value": 10.0, "unit": "mg/mL"},
      {"measurement": "Ki", "setting": "[2]", "value": 8.71, "unit": "nM"}
    ]},
    {"compound": "CC[C@H](C)[C@H](NC(=O)[C@H](CCC(=O)O)NC(=O)[C@H](CCC(=O)O)NC(=O)[C@@H]1CCCN1C(=O)[C@H](CO)NC(=O)[C@H](C)NC(=O)[C@H](CC(=O)O)NC(=O)[C@H](CCC(=O)O)NC(=O)[C@H](CCC(=O)O)NC(=O)[C@@H]1CCCN1C(=O)[C@H](CCCCNC(=O)CCCCCNC(=O)CC[C@H](NC(=O)CCCCCCCCCCCCCCCCC(=O)O)C(=O)O)NC(=O)[C@H](CCC(=O)O)NC(=O)[C@@H]1CCCN1C(=O)[C@H](C)NC(=O)CC(C)C)C(=O)N[C@@H](CCC(N)=O)C(=O)N[C@@H](CCCNC(=N)N)C(=O)N[C@@H](Cc1ccc(O)cc1)C(=O)N[C@@H](Cc1ccc(O)cc1)C(=O)N[C@H](C(=O)N[C@@H](CCC(N)=O)C(=O)N[C@@H](CC(C)C)C(=O)N[C@@H](CCCNC(=N)N)C(=O)N[C@@H](Cc1c[nH]cn1)C(=O)N[C@@H](Cc1ccc(O)cc1)C(=O)N[C@@H](Cc1ccc(O)cc1)C(=O)N[C@@H](CC(N)=O)C(=O)N[C@@H](Cc1c[nH]c2ccccc12)C(=O)N[C@@H](CC(C)C)C(=O)N[C@H](C(=O)N[C@@H](CCCNC(=N)N)C(=O)N[C@@H](CCC(N)=O)C(=O)N[C@@H](CCCNC(=N)N)C(=O)N[C@@H](Cc1ccc(O)cc1)C(N)=O)[C@@H](C)O)C(C)C", "note": "[Compound 93, N{alpha-4}-(3-methylbutanoyl)-N{epsilon-7}-(6-[(4S)-4-carboxy-4-(17-carboxyheptadecanamido)butanamido]hexanoyl)-[4A,7K,9E,17I,18Q,22V,23Q,28Y,30W,31L]-hPYY(4-36)]", "values": [
      {"measurement": "Sol6", "setting": "[1]", "value": 9.4, "unit": "mg/mL"},
      {"measurement": "Sol7", "setting": "[1]", "value": 9.7, "unit": "mg/mL"},
      {"measurement": "Ki", "setting": "[2]", "value": 1.71, "unit": "nM"}
    ]},
    {"compound": "CC(C)CC(=O)N[C@@H](C)C(=O)N1CCC[C@H]1C(=O)N[C@@H](C)C(=O)N[C@@H](CCCCNC(=O)CCCCCNC(=O)CC[C@H](NC(=O)CCCCCCCCCCCCCCCCC(=O)O)C(=O)O)C(=O)N1CCC[C@H]1C(=O)N[C@@H](CCC(=O)O)C(=O)N[C@@H](C)C(=O)N[C@@H](CC(=O)O)C(=O)N[C@@H](C)C(=O)N[C@@H](CO)C(=O)N1CCC[C@H]1C(=O)N[C@@H](CCC(=O)O)C(=O)N[C@@H](CCC(=O)O)C(=O)N[C@@H](CC(C)C)C(=O)N[C@@H](CCC(N)=O)C(=O)N[C@@H](CCCNC(=N)N)C(=O)N[C@@H](Cc1ccc(O)cc1)C(=O)N[C@@H](Cc1ccc(O)cc1)C(=O)N[C@H](C(=O)N[C@@H](CCC(=O)O)C(=O)N[C@@H](CC(C)C)C(=O)N[C@@H](CCCNC(=N)N)C(=O)N[C@@H](Cc1c[nH]cn1)C(=O)N[C@@H](Cc1ccc(O)cc1)C(=O)N[C@@H](Cc1ccc(O)cc1)C(=O)N[C@@H](CC(N)=O)C(=O)N[C@@H](Cc1c[nH]c2ccccc12)C(=O)N[C@@H](CC(C)C)C(=O)N[C@H](C(=O)N[C@@H](CCCNC(=N)N)C(=O)N[C@@H](CCC(N)=O)C(=O)N[C@@H](CCCNC(=N)N)C(=O)N[C@@H](Cc1ccc(O)cc1)C(N)=O)[C@@H](C)O)C(C)C", "note": "[Compound 94, N{alpha-4}-(3-methylbutanoyl)-N{epsilon-7}-(6-[(4S)-4-carboxy-4-(17-carboxyheptadecanamido)butanamido]hexanoyl)-[4A,6A,7K,9E,10A,18Q,22V,23E,28Y,30W,31L]-hPYY(4-36)]", "values": [
      {"measurement": "Sol6", "setting": "[1]", "value": 8.4, "unit": "mg/mL"},
      {"measurement": "Sol7", "setting": "[1]", "value": 8.9, "unit": "mg/mL"},
      {"measurement": "Ki", "setting": "[2]", "value": 0.93, "unit": "nM"}
    ]}
  ]
}
